Target: T1, human V1a receptor (Homo sapiens, UniProt P37288)
T1 construct: host or cells: CHO cells (hV1a cell line)
Assay: Human vasopressin V1a receptor binding assay (3H-AVP competition, hV1a CHO cells)
Conditions: 3H-AVP competition, CHO cells expressing human V1a; for Ki: read-out: V1a Ki; for IC50: read-out: V1a Binding Affinity IC50
Method: Human vasopression V1a receptor binding assay. A cell line expressing the human V1a receptor in CHO cells (henceforth referred to as the hV1a cell line) was obtained from Dr. Michael Brownstein, NIMH, Bethesda, Md., USA. The hV1a cDNA sequence is described by Thibonnier et al., Journal of Biological Chemistry, 269, 3304-3310 (1994), and the expression method was the same as described by Morel et al. (1992). The hV1a cell line was grown in alpha-MEM with 10% fetal bovine serum and 250 ug/ml G418 (Gibco, Grand Island, N.Y., USA). For competitive binding assay, hV1a cells were plated into 6-well culture plate at 1:10 dilution from a confluency flask, and maintained in culture for at least two days. Culture medium was then removed, cells were washed with 2 ml binding buffer (25 mM Hepes, 0.25% BSA, 1×DMEM, PH=7.0). To each well, 990 μl binding buffer containing InM 3H-AVP was added, and followed by 10 μl series diluted Example compounds dissolved in DMSO. […] 100 nM cold AVP (Sigma) was used to assess non-specific binding. Cells were incubated for 45 minutes at 37° C., assay mixture was removed and each well was washed three times with PBS (pH=7.4). 1 ml 2% SDS was added per well and plates were let sit for 30 minutes. The whole content in a well was transferred to a scintillation vial. Each well was rinsed with 0.5 ml PBS which was then added to the corresponding vial. Scintillation fluid (Ecoscint, National Diagnostics, Atlanta, Ga.) was then added at 3 ml per vial. Samples were counted in a liquid scintillation counter (Beckman LS3801). IC50 values were calculated by Prism Curve fitting software.
All of the alkanedioic esters and amides exemplified in the foregoing examples dissolved in DMSO were tested in this assay. Binding curves were generated according to methods described by Thibonnier et al. (1994). [^3H]-AVP was added to the hV1a cell cultures followed by 10-fold dilutions of each test compound.

T1 sequence (P37288 whole entry): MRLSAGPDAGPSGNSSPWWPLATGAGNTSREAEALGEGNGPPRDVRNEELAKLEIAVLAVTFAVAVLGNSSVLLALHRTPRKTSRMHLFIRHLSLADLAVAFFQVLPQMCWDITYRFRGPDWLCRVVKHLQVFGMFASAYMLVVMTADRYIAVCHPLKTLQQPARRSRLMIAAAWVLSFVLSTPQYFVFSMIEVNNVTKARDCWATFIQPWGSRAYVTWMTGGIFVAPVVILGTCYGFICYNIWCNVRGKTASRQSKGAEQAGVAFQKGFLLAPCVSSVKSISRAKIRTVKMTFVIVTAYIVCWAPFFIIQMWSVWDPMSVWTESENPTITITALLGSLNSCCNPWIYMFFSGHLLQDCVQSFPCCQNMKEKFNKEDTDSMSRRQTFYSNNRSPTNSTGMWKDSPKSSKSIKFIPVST

Row | Structure (SMILES) | Ki [nM] | IC50 [nM]
1 | O=C(NC1(c2ccccc2)CCCCC1)C(CCC(=O)N1CCN(C2CCCCC2)CC1)N1C(=O)C(N2C(=O)OCC2c2ccccc2)C1C=Cc1ccccc1 (stereo not drawn) [Example 221G] | 0.93 | 1.5
2 | O=C(NCc1cccc(C(F)(F)F)c1)C(CCC(=O)N1CCN(C2CCCCC2)CC1)N1C(=O)C(N2C(=O)OCC2c2ccccc2)C1C(Cl)=Cc1ccccc1 (stereo not drawn) [Example 226] | 0.3 | 0.49
3 | CCN1CCN(C(=O)CCC(C(=O)NCc2cccc(C(F)(F)F)c2)N2C(=O)C(N3C(=O)OCC3c3ccccc3)C2C(Cl)=Cc2ccccc2)CC1 (stereo not drawn) [Example 228] | 8.35 | 13.6
4 | CCCCN1CCN(C(=O)CCC(C(=O)NCc2cccc(C(F)(F)F)c2)N2C(=O)C(N3C(=O)OCC3c3ccccc3)C2C(Cl)=Cc2ccccc2)CC1 (stereo not drawn) [Example 229] | 0.94 | 1.53
5 | CC(C)N1CCN(C(=O)CCC(C(=O)NCc2cccc(C(F)(F)F)c2)N2C(=O)C(N3C(=O)OCC3c3ccccc3)C2C(Cl)=Cc2ccccc2)CC1 (stereo not drawn) [Example 230] | 4.33 | 7.07
6 | O=C(C(COCc1ccccc1)N1C(=O)C(N2C(=O)OCC2c2ccccc2)C1C=Cc1ccccc1)N1CCC(N2CCCCC2)CC1 (stereo not drawn) [Example 232] | 0.84 | 1.37
7 | O=C(C(COCc1ccccc1)N1C(=O)C(N2C(=O)OCC2c2ccccc2)C1C=Cc1ccccc1)N1CCC(CCN2CCCCC2)CC1 (stereo not drawn) [Example 233] | 0.34 | 0.56
8 | O=C([C@@H](CSCc1ccccc1)N1C(=O)[C@@H](N2C(=O)OC[C@@H]2c2ccccc2)[C@H]1/C=C/c1ccccc1)N1CCC(CCN2CCCCC2)CC1 [Example 238, (2S)-(Benzylthiomethyl)-2-[3(S)-(4(S)-phenyloxazolidin-2-on-3-yl)-4(R)-(2-styryl)azetidin-2-on-1-yl]acetic acid N-[4-[2-(piperid-1-yl)ethyl]piperidin-1-yl]amide] | 0.07 | 0.11
9 | CCN1CCN(C(=O)CC[C@@H](C(=O)NC2(c3ccccc3)CCCC2)N2C(=O)[C@@H](N3C(=O)OC[C@@H]3c3ccccc3)[C@H]2/C=C/c2ccccc2)CC1 [Example 239] | 4 | 6.6
10 | O=C(NC1(c2ccccc2)CCCC1)[C@H](CCC(=O)N1CCN(Cc2ccccc2)CC1)N1C(=O)[C@@H](N2C(=O)OC[C@@H]2c2ccccc2)[C@H]1/C=C/c1ccccc1 [Example 240] | 15.5 | 25
11 | O=C(N[C@@H]1CCCc2ccccc21)[C@H](CCC(=O)N1CCN(C2CCCC2)CC1)N1C(=O)[C@@H](N2C(=O)OC[C@@H]2c2ccccc2)[C@H]1/C=C/c1ccccc1 [Example 241] | 1.24 | 2
12 | COc1cccc(/C=C/[C@@H]2[C@H](N3C(=O)OC[C@@H]3c3ccccc3)C(=O)N2[C@@H](CCC(=O)N2CCN(C3CCCCC3)CC2)C(=O)N[C@@H]2CCCc3ccccc32)c1 [Example 242] | 1.36 | 2.2
13 | O=C(N[C@@H]1CCCc2ccccc21)[C@H](CCC(=O)N1CCN(C2CCCCC2)CC1)N1C(=O)[C@@H](N2C(=O)OC[C@@H]2c2ccccc2)[C@H]1/C=C/c1cccc(Cl)c1 [Example 243] | 0.3 | 0.5
14 | O=C(NC1(c2ccccc2)CCCC1)[C@H](CCC(=O)N1CCN(C2CCCCC2)CC1)N1C(=O)[C@@H](N2C(=O)OC[C@@H]2c2ccccc2)[C@H]1/C=C/c1cccc(Cl)c1 [Example 244] | 2.1 | 3.4
15 | O=C(N[C@@H]1CCCc2ccccc21)[C@H](CCC(=O)N1CCN(C2CCCCC2)CC1)N1C(=O)[C@@H](N2C(=O)OC[C@@H]2c2ccccc2)[C@H]1/C=C/c1cccc(F)c1 [Example 245] | 0.68 | 1.1
16 | O=C(N[C@@H]1CCCc2ccccc21)[C@H](CCC(=O)N1CCN(C2CCCCC2)CC1)N1C(=O)[C@@H](N2C(=O)OC[C@@H]2c2ccccc2)[C@H]1/C=C/c1cccc(C(F)(F)F)c1 [Example 246] | 1.3 | 2.1
17 | N#Cc1cccc(/C=C/[C@@H]2[C@H](N3C(=O)OC[C@@H]3c3ccccc3)C(=O)N2[C@@H](CCC(=O)N2CCN(C3CCCCC3)CC2)C(=O)N[C@@H]2CCCc3ccccc32)c1 [Example 248] | 3.3 | 5.3
18 | O=C(N[C@@H]1CCCc2ccccc21)[C@H](CCC(=O)N1CCN(C2CCCCC2)CC1)N1C(=O)[C@@H](N2C(=O)OC[C@@H]2c2ccccc2)[C@H]1/C=C/c1cccc([N+](=O)[O-])c1 [Example 249] | 1 | 1.7

Further lines, results first:

Row | Ki [nM] | IC50 [nM] | Structure (SMILES)
19 | 2.7 |  | O=C(NC1(c2cccc(F)c2)CCCC1)C(CCC(=O)N1CCN(C2CCCCC2)CC1)N1C(=O)C(N2C(=O)OCC2c2ccccc2)C1C=Cc1ccccc1 (stereo not drawn) [Example 221AM]
20 | 51 | 83 | CC(C)(C)OC(=O)NC1CCN(C2CCN(C(=O)CCC(C(=O)NC3(c4ccccc4)CCCC3)N3C(=O)C(N4C(=O)OCC4c4ccccc4)C3C=Cc3ccccc3)CC2)C1 (stereo not drawn) [Example 221AX]
21 | 1.66 | 2.71 | Cc1cccc(CN(C)C(=O)C(CCC(=O)N2CCN(C3CCCCC3)CC2)N2C(=O)C(N3C(=O)OCC3c3ccccc3)C2C=Cc2ccccc2)c1 (stereo not drawn) [Example 221A]
22 | 1.66 | 2.7 | CCN1CCN(C(=O)CCC(C(=O)NC2CCCc3ccccc32)N2C(=O)C(N3C(=O)OCC3c3ccccc3)C2C=Cc2ccccc2)CC1 (stereo not drawn) [Example 221BD]
23 | 35 | 56 | O=C(NC1CCCc2ccccc21)C(CCC(=O)N1CCN(CCCO)CC1)N1C(=O)C(N2C(=O)OCC2c2ccccc2)C1C=Cc1ccccc1 (stereo not drawn) [Example 221BI]
24 | 0.36 | 0.59 | CN(Cc1cccc(Cl)c1Cl)C(=O)C(CCC(=O)N1CCN(C2CCCCC2)CC1)N1C(=O)C(N2C(=O)OCC2c2ccccc2)C1C=Cc1ccccc1 (stereo not drawn) [Example 221B]
25 | 1.84 | 3 | CN(Cc1cccc(Cl)c1)C(=O)C(CCC(=O)N1CCN(C2CCCCC2)CC1)N1C(=O)C(N2C(=O)OCC2c2ccccc2)C1C=Cc1ccccc1 (stereo not drawn) [Example 221C]
26 | 1.48 | 2.41 | CN(Cc1cccc(Br)c1)C(=O)C(CCC(=O)N1CCN(C2CCCCC2)CC1)N1C(=O)C(N2C(=O)OCC2c2ccccc2)C1C=Cc1ccccc1 (stereo not drawn) [Example 221D]
27 | 12.4 | 20.2 | CN(Cc1cc(Cl)cc(Cl)c1)C(=O)C(CCC(=O)N1CCN(C2CCCCC2)CC1)N1C(=O)C(N2C(=O)OCC2c2ccccc2)C1C=Cc1ccccc1 (stereo not drawn) [Example 221E]
28 | 1.04 | 1.7 | C[C@@H](NC(=O)[C@H](CCC(=O)N1CCN(C2CCCCC2)CC1)N1C(=O)[C@@H](N2C(=O)OC[C@@H]2c2ccccc2)[C@H]1/C=C/c1ccccc1)c1cccc(C(F)(F)F)c1 [Example 221F]
29 | 2.5 | 4 | O=C(NC1(c2ccccc2F)CCCC1)C(CCC(=O)N1CCN(C2CCCCC2)CC1)N1C(=O)C(N2C(=O)OCC2c2ccccc2)C1C=Cc1ccccc1 (stereo not drawn) [Example 221H]
30 | 7.4 | 12 | O=C(NC1(c2ccc(F)cc2)CCCC1)C(CCC(=O)N1CCN(C2CCCCC2)CC1)N1C(=O)C(N2C(=O)OCC2c2ccccc2)C1C=Cc1ccccc1 (stereo not drawn) [Example 221I]
31 | 5.1 | 8.4 | O=C(CCC(C(=O)N1CCc2ccccc2C1)N1C(=O)C(N2C(=O)OCC2c2ccccc2)C1C=Cc1ccccc1)N1CCN(C2CCCCC2)CC1 (stereo not drawn) [Example 221O]
32 | 11.1 | 18.1 | O=C(NC(CCO)c1ccccc1)C(CCC(=O)N1CCN(C2CCCCC2)CC1)N1C(=O)C(N2C(=O)OCC2c2ccccc2)C1C=Cc1ccccc1 (stereo not drawn) [Example 221Q]
33 | 3.08 | 5.03 | O=C(NC1CCc2ccccc21)C(CCC(=O)N1CCN(C2CCCCC2)CC1)N1C(=O)C(N2C(=O)OCC2c2ccccc2)C1C=Cc1ccccc1 (stereo not drawn) [Example 221S]
34 | 7.2 | 11.6 | O=C(CCC(C(=O)NC1CCCc2ccccc21)N1C(=O)C(N2C(=O)OCC2c2ccccc2)C1C=Cc1ccccc1)NCCN1CCCCC1 (stereo not drawn) [Example 221X]
35 | 4.7 | 7.6 | O=C(NC1CCCc2ccccc21)C(CCC(=O)N1CCCC1CN1CCCC1)N1C(=O)C(N2C(=O)OCC2c2ccccc2)C1C=Cc1ccccc1 (stereo not drawn) [Example 221Y]
36 | 7.8 | 12.7 | CCCCN1CCN(C(=O)CCC(C(=O)NCc2cccc(C(F)(F)F)c2)N2C(=O)C(N3C(=O)OCC3c3ccccc3)C2C(Br)=Cc2ccccc2)CC1 (stereo not drawn) [Example 230L]
37 | 1.25 | 2.04 | O=C(C(COCc1ccccc1)N1C(=O)C(N2C(=O)OCC2c2ccccc2)C1C=Cc1ccccc1)N1CCN(C2CCCCC2)CC1 (stereo not drawn) [Example 232D]
38 | 0.17 | 0.28 | O=C([C@@H](COCc1ccccc1)N1C(=O)[C@@H](N2C(=O)OC[C@@H]2c2ccccc2)[C@H]1/C=C/c1ccccc1)N1CCC(CN2CCCCC2)CC1 [Example 232E]

Reference: US11319306B2, “Compositions and methods for treating neurodegenerative diseases” (Azevan Pharmaceuticals, Inc., priority 2014, dated 2022)
